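Here, GI50 denotes the concentration required for 50% inhibition of growth. The concentration for full growth arrest is given as TGI.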
What was measured:
Assay in all cases: NCI-60 cell line screen, 384-well format
HCC-2998 colon = test system: HCC-2998 colon
DU-145 prostate = test system: DU-145 prostate
NCI-H226 lung = test system: NCI-H226 lung
OVCAR-5 ovarian = test system: OVCAR-5 ovarian
SK-OV-3 ovarian = test system: SK-OV-3 ovarian
SF-295 CNS = test system: SF-295 CNS
HCT-116 colon = test system: HCT-116 colon
OVCAR-8 ovarian = test system: OVCAR-8 ovarian
NCI-H522 lung = test system: NCI-H522 lung
BT-549 breast = test system: BT-549 breast
HOP-92 NSCLC = test system: HOP-92 NSCLC
MDA-MB-231 breast = test system: MDA-MB-231 breast
SK-MEL-28 melanoma = test system: SK-MEL-28 melanoma

Which GI50 (HCC-2998 colon) does the source give for CC(C)(O)CNc1nc(Nc2ccnc(C(F)(F)F)c2)nc(-c2cccc(C(F)(F)F)n2)n1 here?
The GI50 was 16.3 µM.

And the TGI (HCC-2998 colon)?
Its TGI is 30.4 µM.

What about the GI50 (DU-145 prostate) of the same compound?
The GI50 was 16.3 µM.

And the TGI (DU-145 prostate)?
Its TGI is 31.6 µM.

And the GI50 (NCI-H226 lung)?
The GI50 was 16.2 µM.

What about the TGI (NCI-H226 lung) of the same compound?
The TGI was 31.7 µM.

What about the GI50 (OVCAR-5 ovarian) of the same compound?
Its GI50 is 27.3 µM.

What about the TGI (OVCAR-5 ovarian) of the same compound?
Its TGI is 73.5 µM.

And the GI50 (SK-OV-3 ovarian)?
Its GI50 is 20.9 µM.

And the TGI (SK-OV-3 ovarian)?
The TGI was 40.9 µM.

What about the GI50 (SF-295 CNS) of the same compound?
Its GI50 is 16 µM.

And the TGI (SF-295 CNS)?
The TGI was 29.8 µM.

And the GI50 (HCT-116 colon)?
The GI50 was 17.3 µM.

And the TGI (HCT-116 colon)?
The TGI was 33.2 µM.

And the GI50 (OVCAR-8 ovarian)?
Its GI50 is 17.4 µM.

What about the TGI (OVCAR-8 ovarian) of the same compound?
Its TGI is 38.3 µM.

What about the GI50 (NCI-H522 lung) of the same compound?
Its GI50 is 17.5 µM.

And the TGI (NCI-H522 lung)?
The TGI was 35.4 µM.

And the GI50 (BT-549 breast)?
The GI50 was 16 µM.

What about the TGI (BT-549 breast) of the same compound?
Its TGI is 29.7 µM.

What about the GI50 (HOP-92 NSCLC) of the same compound?
The GI50 was 19.3 µM.

What about the TGI (HOP-92 NSCLC) of the same compound?
The TGI was 37.7 µM.

And the GI50 (MDA-MB-231 breast)?
The GI50 was 18.7 µM.

What about the TGI (MDA-MB-231 breast) of the same compound?
Its TGI is 34.5 µM.

And the GI50 (SK-MEL-28 melanoma)?
Its GI50 is 16.9 µM.

And the TGI (SK-MEL-28 melanoma)?
Its TGI is 31 µM.
